Assay results as given in patent publication US20220370553A1, “PREBIOTIC-INDUCED ANTI-TUMOR IMMUNITY” (Sanford Burnham Prebys Medical Discovery Institute, priority 2019, published 2022).

Legend:
[1] = system: intestinal epithelial cells; test: qRT-PCR of inflammatory mediators in intestinal epithelial cells in vivo; parameters: species or system C57BL/6 mice; details: mucin 3% in drinking water, naïve mice, 2 weeks
Excerpt: FIG. 15 illustrates effects of mucin and inulin on expression of inflammatory mediators by intestinal epithelial cells in vivo. qRT-PCR data are shown for mRNA levels of the indicated inflammatory mediators in intestinal epithelial cells from mucin or inulin-treated mice (n=4). Data are representative of two independent experiments. Graphs show the mean s.e.m. *P<0.05, **P<0.005, one-way ANOVA with Tukey's correction.
Isolation of intestinal epithelial cells. A 10 cm section of mouse small intestine was opened longitudinally, minced, washed in 150 mM NaCl containing 1 mM DTT, and then resuspended in dissociation buffer (130 mM NaCl, 10 mM EDTA, 10 mM Hepes [pH 7.4], 10% FCS, and 1 mM DTT). The sections were incubated at 37° C. for 30 min with vigorous shaking to release the epithelial cells from the lamina propria. The epithelial cell suspension was then carefully aspirated, centrifuged, and washed in ice-cold PBS.
The effect of mucin and inulin on intestinal epithelial cells was evaluated in vivo. To this end, mucin (3% in drinking water) or inulin (15% in chow) were administered to naïve C57BL/6 mice for 2 weeks. Intestinal epithelial cells were isolated from small intestine and were assessed for the level of select cytokines and chemokines that are implicated in the activation of the immune response and anti-tumor immunity.

[2] = system: Yumm1.5 tumors; test: Flow cytometry of tumor-infiltrating immune cells in Yumm1.5 tumors; format: in vivo, C57BL/6 mice; details: 20 days following tumor inoculation
Excerpt: (§1) FIG. 2B, Quantification of tumor-infiltrating effector (CD44hi) CD4+, CD8+ and CD45+ T cells from mice treated as in FIG. 2A (n=10). FIG. 2C, Quantification of tumor-infiltrating, IFN-g-producing CD4+ T cells from mice treated as in FIG. 2A (n=10). FIG. 2D, Quantification of tumor-infiltrating total DCs and subsets in mice treated as in FIG. 2A (n=10). FIG. 2E, MFI of MHC class I and MHC class II on DCs from the tumors of mice treated as in FIG. 2A (n=10). […] Graphs show the mean s.e.m. *P<0.05, **P<0.005, ***P<0.001,****P<0.0001 by two-way ANOVA with Tukey's correction (A) and by one-way ANOVA with Tukey's correction (B-E).
(§2) Tumor digestion. Tumors were excised, minced, and digested with 1 mg/ml collagenase D (Roche) and 100 μg/ml DNase I (Sigma) at 37° C. for 1 h. Digests were then passed through a 70-μm cell strainer to generate a single-cell suspension. The cells were washed twice with PBS containing 2 mM EDTA, and then stained for flow cytometry.
(§3) Flow cytometry. Tumor-derived single-cell suspensions were washed twice with FACS staining buffer, fixed for 15 min with 1% formaldehyde in PBS, washed twice, and resuspended in FACS staining buffer. For intracellular cytokine staining, cells were resuspended in complete RPMI-1640 (containing 10 mM HEPES, 1% non-essential amino acids and L-glutamine, 1 mM sodium pyruvate, 10% heat-inactivated fetal bovine serum (FBS), and antibiotics) supplemented with 50 U/mL IL-2 (NCI), […] brefeldin A (BFA, Sigma), and incubated with phorbol myristate acetate (10 ng/ml) and ionomycin (0.5 μg/ml) at 37° C. The cells were then fixed and permeabilized using a Cytofix/Cytoperm Kit (BD Biosciences) before staining. Antibodies to the following proteins were used: CD45.2 (104), CD8a (53-6.7), CD4 (GK1.5), CD44 (IM7), TNF-α (MP6-XT22), IFN-γ (XMG1.2), CD11c (N418), CD11b (M1/70), MHC class II (M5/114.15.2), PDCA (129c1), and B220 (RA3-6B2) from BioLegend, and antibodies to IL-2 (JES6-5H4) and MHC class I (AF6-88.5.5.3) from eBioscience. All data were collected on an LSRFortessa (BD Biosciences) and analyzed using FlowJo Software (Tree Star).

[3] = system: MC-38 mouse colorectal cancer cells; test: Growth of MC-38 colorectal cancer tumors in prebiotic-fed mice; format: in vivo, C57BL/6 mice; details: 3% mucin in drinking water or 15% inulin diet from two weeks prior to inoculation
Excerpt: (§4) MC-38 mouse colorectal cancer cells (1×10^6) were inoculated, and diets were continued after inoculation.

[4] = system: Yumm1.5 tumors; test: Growth of Yumm1.5 melanoma tumors in prebiotic-fed mice; format: in vivo, C57BL/6 mice; details: mucin 3% in drinking water or inulin 15% w/w chow from 2 weeks prior to inoculation of 1×10^6 Yumm1.5 cells
Excerpt: as §1

[5] = system: MC-38 mouse colorectal cancer cells; test: Flow cytometry of tumor-infiltrating immune cells in MC-38 tumors; format: in vivo, C57BL/6 mice
Procedure: as §2, §3, §4

[6] = system: N-Ras mutant melanoma tumor cells (MaNRAS1); test: Growth of N-Ras mutant melanoma tumors with prebiotics with or without MEKi; format: in vivo, C57BL/6 mice; details: in the absence of MEKi; mucin 3% in water or inulin 15% in chow
Procedure: FIG. 7A C57BL/6 mice were injected (s.c.) with NRAS^Q61K mouse melanoma cells (1×10^6) (n=10). The mice were administered with either a control diet alone, or one supplemented with mucin (3%) in drinking water or inulin (15%) in chow starting 14 days prior to tumor inoculation. When tumors reached a volume of 10-20 mm^2, mice were treated with MEKi (PD325901) administered by gavage (10 mg/kg, daily), alone or in combination with inulin or mucin, as indicated. Tumor volume was assessed every 4 days. […] Data are representative of two independent experiments. Graphs show the mean±s.e.m. *P<0.05, **P<0.005, ***P<0.001, ****P<0.0001 by two-way ANOVA with Tukey's correction (A) or one-way ANOVA with Tukey's correction (B-D).
Animals and tumor models. […] Male 6-8-week-old mice were used for all experiments. […] All mice were fed an autoclaved chow diet ad libitum (LabDiet 5K67, Purina Foods). […] Mouse selection for experiments was not formally randomized or blinded. For tumor growth experiments, mice were injected subcutaneously (s.c.) with 1×10^6 tumor cells. Tumor size was measured twice a week for calculation of tumor volume. Tumors were weighed at the time of excision.
Mucin and inulin treatment. For mucin treatment, C57BL/6 mice were subjected to control or water supplemented with 3% mucin (Lee Biosolutions) prior to (14 days) and during tumor inoculation. Water was changed every other day. For inulin treatment, mice were received a diet (TD. 94048, AIN-93M, Purified Diet, ENVIGO) enriched with long-chain inulin by substituting all of sucrose and 5% of corn starch in the control diet or a modified diet (TD. 160256, Modified AIN-93M, Diet w 15% inulin, ENVIGO) prior to (14 days) and during tumor inoculation. Diets were changed 2 times a week.
Experiments were conducted to determine whether prebiotics impacted the effectiveness of MEK inhibitor (MEKi) treatment on tumor growth control and treatment resistance.

[7] = system: SW1 tumor cells; test: SW1 tumor growth in germ free mice colonized with minimal microbiota (ASF); format: in vivo, C3H/HeN mice; details: two weeks of mucin, 24 days
Excerpt: Tumor size was monitored over the next 24 days (n=15).
Animals and tumor models. All experimental animal procedures were approved by the Institutional Animal Care and Use Committee of Sanford Burnham Prebys Medical Discovery Institute (SBP) and complied with all relevant ethical regulations for animal testing and research. C57BL/6 mice were obtained from Sanford Burnham Prebys Medical Discovery Institute. OT-I mice were bred at SBP to CD45.1 mice (B6.SJLB6.SJL-Ptprc^a Pepc^b/BoyJ) that were obtained from Jackson Laboratories. C3H/HeOuJ mice were purchased from Jackson laboratories. Male 6-8-week-old mice were used for all experiments. […] Briefly, fresh feces were collected and analyzed by bacterial 16S rRNA gene-specific PCR (30 cycles, universal bacteria primers 8F and 1391R) in combination with aerobic and anaerobic culture of feces in Brain Heart Infusion, Wilkins-Chalgren and Yeast Mold broths, and on Tryptic Soy Agar plates (all media from Difco™ Becton Dickinson) at 37° C. for 7 days. […] Briefly, genomic DNA was extracted from fecal samples and ASF bacteria were quantified by qPCR with species-specific primers. […] Tumor size was measured twice a week for calculation of tumor volume. […]
In order to test the requirement for gut microbiota in prebiotic-induced tumor control, experiments were conducted using mice with a defined, minimal microbiota. […] Tumor size was monitored over the next 24 days.

[8] = system: serum cytokines and chemokines; test: Serum cytokine and chemokine detection (LEGENDplex); format: in vivo, mice
Excerpt: Graphs show the mean±s.e.m. *P<0.05, ****P<0.0001 by two-tailed t-test or Mann-Whitney U test.
Serum cytokine and chemokine detection. Cytokines and chemokines in the sera of naïve or tumor-bearing mice treated with or without mucin were quantified using the LEGENDplex™ mouse inflammation panel and mouse proinflammatory chemokine panel (BioLegend), respectively. All data were collected on an LSRFortessa (BD Biosciences) and analyzed using LEGENDplex™ software (BioLegend).
Levels of circulating cytokines and chemokines were quantified in mucin-treated mice both before and after tumor inoculation.

In the case of mucin, the “TNF-α mRNA level in intestinal epithelial cells” value [1] is reported as “elevated”, the “MHC class I and MHC class II on tumor-resident DCs” value [2] is reported as “higher levels” and the “dendritic cell subsets including pDCs and CD8a+ conventional DCs in tumors” value [2] is reported as “increased”. For the same substance, the “effector (CD44hi) CD4+ and CD8+ T cells, and CD45+ cells in tumors” value ([2]; compared to control mice) was “enrichment”, the “growth of colon cancer MC-38 tumors” value [3] was “not” and the melanoma tumor growth [4] was “attenuated”. For the same substance, the “CD4+ or CD8+ T cells, CD45+ cells, cytokine production, DCs and DC subsets in tumors” value [5] was “No differences”, the “control of N-Ras mutant tumors” value [6] was “not” and the SW1 tumor growth [7] was “failed to attenuate tumor growth”. For the same substance, the “serum levels of IL-6, IL-1a, IL-10, IL-17A and IL-23” value ([8]; following tumor inoculation (10 days), compared with control) was “reduced levels”, the “serum levels of IL-1a and CXCL13” value ([8]; mucin feeding for two weeks, prior to tumor inoculation) was “Higher levels” and the “serum levels of chemokines CXCL1 and CXCL13” value ([8]; tumor-inoculated mice (10 days), compared with control) was “Lower serum levels”.
